What was measured:
[1] = system: TDP-43(Q331K) mice; assay: Rotarod testing of TDP-43(Q331K) transgenic mice; assay type: in vivo, mouse
[2] = system: C. elegans expressing GFP-TDP-43(CTF) (C-terminal fragment of human TDP-43, aas 208-414) in the body wall muscle; assay: C. elegans lifespan assay, strain expressing TDP-43 C-terminal fragment; assay type: in vivo; conditions: 10 μg/ml in the NGM agar, vs DMSO vehicle, p<0.005
Source text: C-terminal fragments of TDP-43 are associated with pathology in ALS and FTD patients. In particular, proteolytic cleavage at Arg208 has been reported to generate a pathogenic C-terminal fragment (see Wang et al., 2013, J. Biol. Chem. 288(13):9049-57 and Igaz et al., 2009, J. Biol. Chem. 284(13):8516-24; the disclosures of which are incorporated herein by reference). Therefore, a transgenic C. elegans strain was generated that expresses the C-terminal fragment (CTF) of human TDP-43 (aas 208-414) in the body wall muscle, fused via a short linker region to the C-terminus of a GFP tag. Expression is under the control of the myo-3 promoter. […]
C. elegans cultures were synchronised by incubating an asynchronous culture in basic sodium hypochlorite solution to kill everything but the bleach-resistant mature eggs. […] From this point on, each ageing population was inspected daily and viability assessed by counting the number of dead worms.
(§1) The cumulative number of dead worms for each population was used to generate a survival/viability plot to determine chronological lifespan (CLS). Survival was analysed using the Kaplan-Meier log-rank survival analysis method, using the Online Application for Survival (OASIS; see http://sbi.postech.ac.kr/oasis). […]

[3] = in vivo, 2 mg/kg/day
Method: Based on pharmacokinetic analysis, a tacrolimus dose of 2 mg/kg/day in the mouse is believed to correspond to a human oral dose of about 0.33-0.44 mg/day oral for a 70 kg person.

[4] = system: control (GFP-expressing) C. elegans; assay: C. elegans lifespan assay, control strain expressing GFP only; assay type: in vivo; conditions: 10 μg/ml in the NGM agar, vs DMSO vehicle, p<0.01
Method: A control C. elegans strain was generated in the same background, in which the GFP reporter only is expressed under the control of the myo-3 promoter.
These strains were crossed with worms carrying a mutation in the bus-5 gene, which confers drug-sensitivity, to produce drug-sensitive strains expressing GFP alone (“GFP”) or expressing the GFP-TDP-43 CTF fusion protein (“GFP-TDP-43(CTF)”).
C. elegans cultures were synchronised by incubating an asynchronous culture in basic sodium hypochlorite solution to kill everything but the bleach-resistant mature eggs. Approximately 300 eggs were added on to agar plates and then allowed to hatch and develop (to produce approximately 200 worms) in the presence of the test compound (or vehicle) and bacterial food source. […] From this point on, each ageing population was inspected daily and viability assessed by counting the number of dead worms.
as §1

[5] = system: TNF-α; assay: Blood TNF-α levels in healthy human volunteers; assay type: in vivo
Method: (§2) A hard gelatine capsule was filled with the following composition:
(§3) One capsule as above containing 0.3 mg tacrolimus was administered daily to healthy human volunteers for three successive days. […] Similarly, no change in TNF-α levels occurred as a result of administering 0.6 mg daily of tacrolimus to healthy volunteers. The average trough level of tacrolimus (level after 24 hours of administration of each dose) observed was approximately 220 pg/mL.

[6] = Tacrolimus blood levels in healthy human volunteers after capsule; assay type: in vivo
Method: as §2, §3

Compound	rotarod latency / decline in motor function ([1]; 10 mg/kg p.o. per day in water, up to 60 weeks, vs water-treated control)	rotarod latency / decline in motor function ([1]; 0.25 mg/kg per day p.o., 60 weeks from 3 weeks of age, vs vehicle)	rotarod latency / decline in motor function ([1]; 0.25 mg/kg per day p.o., 60 weeks from 3 weeks of age, vs vehicle, listed as Tacrolimus)	rotarod latency / decline in motor function ([1]; 1.25 mg/kg per day p.o., 60 weeks from 3 weeks of age, vs vehicle)	rotarod latency / decline in motor function ([1]; 1.25 mg/kg per day p.o., 60 weeks from 3 weeks of age, vs vehicle, listed as Tacrolimus)	rotarod latency / decline in motor function ([1]; 2.5 mg/kg per day p.o., 60 weeks from 3 weeks of age, vs vehicle)	rotarod latency / decline in motor function ([1]; 2.5 mg/kg per day p.o., 60 weeks from 3 weeks of age, vs vehicle, listed as Tacrolimus)	lifespan (survival) of worms expressing the TDP-43 C-terminal fragment [2]	lifespan (survival) of worms expressing the TDP-43 C-terminal fragment ([2]; listed as Tacrolimus)	human oral dose corresponding to the mouse dose [3] [mg/day]	lifespan (survival) of control GFP-expressing worms [4]	lifespan (survival) of control GFP-expressing worms ([4]; listed as Tacrolimus)	change in blood TNF-α levels ([5]; 0.3 mg capsule daily for three successive days)	change in TNF-α levels ([5]; 0.6 mg daily)	average peak level ([6]; 0.3 mg capsule daily for three days, healthy volunteers)	expected trough level ([6]; two capsules simultaneously, single dose of 0.6 mg)
Nc1nc2ccc(OC(F)(F)F)cc2s1 [riluzole]	delays the progression of the decline in rotarod performance															
C=CC[C@@H]1/C=C(\C)C[C@H](C)C[C@H](OC)[C@H]2O[C@@](O)(C(=O)C(=O)N3CCCC[C@H]3C(=O)O[C@H](/C(C)=C/[C@@H]3CC[C@@H](O)[C@H](OC)C3)[C@H](C)[C@@H](O)CC1=O)[C@H](C)C[C@@H]2OC [tacrolimus]		delays the progression of motor decline	delays the progression of the decline in rotarod performance	delays the progression of motor decline	delays the progression of the decline in rotarod performance	delays the progression of motor decline	delays the progression of the decline in rotarod performance	partially rescuing the lifespan deficit	significant increase in lifespan	0.33 to 0.44	increasing the lifespan	significant increase in lifespan	No significant changes	no change	approximately 3700 pg/mL	about 440 pg/mL

From patent publication US20190015395A1, “TACROLIMUS FOR TREATING TDP-43 PROTEINOPATHY” (CHRONOS THERAPEUTICS LIMITED, priority 2016, published 2019)
